In EP1452605A1, “Method for determining antiviral activity” (Universiteit Utrecht Holding B.V., priority 2003, dated 2004):
pIC50: −log10 of the molar value.

Key:
FIV UT-113 = assay: FIV infection of CrFK cells, FIV p24 ELISA; format: cell-based, Feline immunodeficiency virus (FIV); settings: 100 to 0.024 µM, p24 after 6 days
Method: After 6 days of incubation FIV replication was measured by quantification of the p24 viral core antigen in the cell culture supernatant by an FIV p24 enzyme-linked immunoabsorbent assay as described previously ^19.

[1] = Cellular viability assay (MTT) of HFF overlayed with BHK cells; format: cell-based, Human; settings: hff and bhk cells; read-out: TC50 (the source's name)
HFF and BHK cells = assay: as above; format: cell-based, Human
[2] = Cellular viability assay (MTT) of MDM; format: cell-based; settings: human, 7 days, read-out: TC50
HIV-1Ba-L = assay: HIV-1 infection of PBMC, p24-core antigen ELISA; format: cell-based
Method: To correct for the input virus, an extra control consisting of medium containing the same amount of input virus as added to the cells was included in the experiment. The amount of p24 in this control was subsequently subtracted from the p24 values of the samples in order to obtain the exact amount of p24 produced by the cells. p24-core antigen quantification by ELISA After 2 or 7 days incubation, samples of the supernatants were collected, inactivated by addition of Empigen (Calbiochem, La Jolla, CA, USA) and by heat inactivation at 56°C for 30 min. p24-core antigen concentration was determined by an enzyme linked immunoabsorbent assay (ELISA) (AMPAK™, DAKO, Cambridgeshire, UK) as described previously ^18,19. The optical density values were converted into p24 concentration (ng/ml) with the use of a calibration curve made by serial dilutions of recombinant p24 protein (NIBSC, UK) that was submitted to the same treatment as the samples.
(§1) To correct for the input virus, an extra control consisting of medium containing the same amount of input virus as added to the cells was included in the experiment. The amount of p24 in this control was subsequently subtracted from the p24 values of the samples in order to obtain the exact amount of p24 produced by the cells.
(§2) After 7 days incubation, samples of the supernatants were collected, inactivated by addition of Empigen (Calbiochem, La Jolla, CA, USA) and by heat inactivation at 56°C for 30 min. p24-core antigen concentration was determined by an ELISA (AMPAK™, DAKO, Cambridgeshire, UK) as described previously ^39,40. The optical density values were converted into p24 concentration (ng/ml) with the use of a calibration curve made by serial dilutions of recombinant p24 protein (NIBSC, UK) that was submitted to the same treatment as the samples.
as §1
as §2, with “enzyme linked immunoabsorbent assay (ELISA)” for “ELISA”, “15,16.” for “^39,40.”

3096 = assay: Drug susceptibility assay (cell-killing MTT assay) in MT-2 cells; settings: Human immunodeficiency virus 1, MT2, 120 h
Method: The cells were maintained at 37°C, 5% CO2. One day prior to the experiments, the cells were passaged 1:1 in a concentration of 1 × 10^6 cells/ml.
The genes that contain the drug resistance mutations are excised from the clinical isolates and cloned into the genetic background of HXB2. Thus all tested HIV-1 strains have the same genetic background. […] This strain contains an insertion of two a.a. between codons 68 and 69 of RT as well as an a.a. change at codon 67.
After 5 days of incubation a cellular viability assay was performed as described above. In this case, the amount of formazan reflects the number of cells protected by the drug against killing by the virus and is used as a read out for drug susceptibility.

With `CCCCC#CCSc1ccccc1OC(C)=O` [APHS, o-(acetoxyphenyl)hept-2-ynyl sulfide] the “effect on FIV replication” value (FIV UT-113) was “did not show any effect”, the CC50 [1] was 374 µM and the “cytotoxicity for HFF and BHK cells” value (HFF and BHK cells) was “not cytotoxic”. It also gave a CC50 at 168 h [2] of 235 µM, a pIC50 (HIV-1Ba-L; Human immunodeficiency virus 1, 168 h, PBMC infected with HIV-1Ba-L, p24 antigen after 7 days, read-out: IC50) of 5.22 and an inhibition at 30 µM (HIV-1Ba-L; Human immunodeficiency virus 1, 30 µM APHS, PBMC, read-out: inhibit HIV-1Ba-L replication) of 80%. It also gave a pIC50 3096 of 5.40.
